{"source": "patent US20110130425A1", "about": "“Use of H3 Histaminergic Agonists for the Treatment of Addiction to Drugs of Abuse” (priority 2009, published 2011)", "system": "alcohol-seeking responses (craving)", "assay": "Cue-induced reinstatement of ethanol-seeking behavior", "type": "in vivo, rat", "details": "L-histidine acute injection; rats", "protocol": "The goal of this study is to evaluate the effects of a H3 histaminergic ligand, such as L-histidine, in a gold-standard model in the alcohol field. Namely, cue-induced reinstatement of alcohol-seeking behavior in order to measure alcohol-seeking responses (craving).\nPriming and cue-induced reinstatement of ethanol-seeking behavior: Rats are trained to self-administer 10% (v/v) ethanol in a single 30 minute daily session on a Fixed Ratio 1 (FR 1) schedule. During the first three days of training, responses at the left lever are reinforced by delivery of 0.2% (w/v) saccharin solution. Following acquisition of saccharin-reinforced responding, rats are trained to self-administer ethanol. Thus, rats have access to 0.2% saccharin with 5% ethanol for one day, 5% ethanol for 1 day, 0.2% saccharin with 8% ethanol for 1 day, 8% ethanol for 1 day, 0.2% saccharin with 10% ethanol for 1 day, and 10% ethanol for 1 day. During all the training phase, responses at the right lever result in the delivery of a drop of water.\nDuring the conditioning phase, animals are trained to discriminate the availability of ethanol (reward) vs. water (non-reward). This phase starts after completion of the saccharin-fading procedure. […] The 5 second period serves as “time-out” during which responses are recorded but not reinforced. […]"}
{"smiles": "N[C@@H](Cc1c[nH]cn1)C(=O)O", "note": "[L-histidine]", "values": [{"measurement": "alcohol seeking (craving) induced by cues", "result": "decreases alcohol seeking"}]}
